These results are taken from patent US10927115B2, “Substituted heterocycles for targeting Hsp90” (Duke University, priority 2012, dated 2021).

For one test, the system named is Hsp90 and GRP94. Put plainly: Purinome captured on ATP Sepharose interrogated with compounds in parallel; eluted proteins identified by MS. The conditions noted are these: FIG. 3; SDS-PAGE silver staining, mass spectrometry. The test is classed as binding, pig. From the text:
The purinome was captured from pig mammary gland extract as described (Hughes et al., Bioorg Med Chem. 2012, 20(10):3298-3305) on gamma phosphate linked ATP Sepharose. Following extensive washing with physiological buffers to remove non-specifically associated proteins, the resin was divided equally and interrogated with the indicated compounds in parallel as described (Hughes et al 2012). All eluted proteins were characterized by SDS-PAGE and silver staining, and then identified by mass spectrometry. […] Key: GRP94, glucose regulated protein 94; Hsp90, heat shock protein 90; LAPT, lapatinimb; Hsp90 STD, purified Hsp90; 17-AAG, derivatized form of geldanamycin, BLK, vehicle control consisting of buffer containing 10% DMSO used to solubilize all compounds included in the test.

For a further test, the system named is MCF7 cells. Put plainly: Compound 10 fluorescence in MCF7 cells with anti-Hsp90 antibody or competing compound 5. The test is classed as cell-based. The conditions noted are these: FIG. 6C. As for the experimental part: In FIG. 6B, the compound was added in the presence of an antibody to Hsp90. […] DAPI (blue) highlights the nucleus of the cell. In FIG. 6 the green staining from compound 10 fluorescence appears white, while blue from the DAPI-stained nuclei appears gray.

Test [1] has as its system Hsp90. Put plainly: Affinity resin capture of Hsp90 from pig mammary gland extract (SDS-PAGE silver stain, MS sequencing). The test is classed as binding. The conditions noted are these: 1 mM compound 5 pre-incubated in the tissue extract. As for the experimental part: Several media were prepared as described in Example 7, using compounds 6, 7, 8 and 9. These resins were termed A, B, C and D respectively. To prepare the resin in each case, the appropriate compound was added at 1-10 μmol/gram of resin in minimal methanol.
The ability of each resin to selectively capture Hsp90 from pig mammary gland extract, a tissue shown to be high in ATP binding proteins including native forms of Hsp90, GRP94 and TRAP1, was evaluated. The resin was incubated in the protein solution then washed with a high salt buffer. The bound proteins were removed via an SDS boil procedure, separated by SDS-PAGE electrophoresis, located by silver staining and identified using mass spectrometry (MS) sequencing. […] In the case of resin E (Example 7), bound proteins were eluted with 25 mM sodium dithionite in phosphate-buffered saline.

A further test relates to BT474 cells. Put plainly: Competition of compound 10 signal by compound 5 in permeabilized cells (plate reader fluorescence). The conditions noted are these: compound 5 0-10 μM; escin; 30 minutes; Ex488/Em522 nm; FIG. 9. The test is classed as cell-based. As for the experimental part:
BT474 cells were incubated with varying doses of compound 5 (0 μM, 0.01 μM, […], 1 μM and 10 μM) in the presence of a fixed concentration of compound 10 ([…]) and a cell permeabilizing agent (escin) for 30 minutes. The cells were then washed to remove the free probe and cell extracts prepared from the homogenized cells. The amount of drug uptake was then measured by fluorescence (Ex488/Em522 nm) in a micro plate fluorescence reader.

A further test addresses T1, GRP94 (Sus scrofa, UniProt Q29092).
T1 construct: The ATP resin was charged with the pig mammary gland extract; from tissue; host or cells: pig mammary gland extract captured on gamma phosphate linked ATP Sepharose
Nature of the test: Elution of pig mammary gland proteins from gamma phosphate linked ATP Sepharose with increasing amounts of compound. It counts as binding. The conditions noted are these: FIG. 2. The source says:
(§1) The ATP resin was charged with the pig mammary gland extract and aliquots were distributed into individual wells.

For test [2], the system named is Hsp90. Described as above. The conditions noted are these: FIG. 2. The test is classed as binding.
Description: as §1

T1 sequence (Q29092 22-804): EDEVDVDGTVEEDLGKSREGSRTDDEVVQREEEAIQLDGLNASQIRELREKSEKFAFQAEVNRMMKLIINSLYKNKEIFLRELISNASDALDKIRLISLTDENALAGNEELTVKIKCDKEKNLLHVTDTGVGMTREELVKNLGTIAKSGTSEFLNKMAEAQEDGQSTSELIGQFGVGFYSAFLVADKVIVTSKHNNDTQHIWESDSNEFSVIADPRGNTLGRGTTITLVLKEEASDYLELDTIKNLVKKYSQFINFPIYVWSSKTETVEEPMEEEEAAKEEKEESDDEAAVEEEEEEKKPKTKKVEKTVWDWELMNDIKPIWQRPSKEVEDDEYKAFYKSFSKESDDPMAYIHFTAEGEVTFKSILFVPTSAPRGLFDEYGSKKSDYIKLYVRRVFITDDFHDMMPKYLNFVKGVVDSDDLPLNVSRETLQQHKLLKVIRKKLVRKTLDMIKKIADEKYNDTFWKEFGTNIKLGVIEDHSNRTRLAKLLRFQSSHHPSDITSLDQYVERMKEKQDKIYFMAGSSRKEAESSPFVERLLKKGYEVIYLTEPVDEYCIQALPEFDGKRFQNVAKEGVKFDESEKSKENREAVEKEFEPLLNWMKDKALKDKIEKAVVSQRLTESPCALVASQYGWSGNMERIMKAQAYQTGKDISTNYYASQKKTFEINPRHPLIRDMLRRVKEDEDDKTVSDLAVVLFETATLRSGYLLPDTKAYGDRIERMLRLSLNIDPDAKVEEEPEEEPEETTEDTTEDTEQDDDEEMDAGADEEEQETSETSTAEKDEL

Take “2-((19-di(ferrocenemethylamino)-4,7,10,13,16-pentaoxanonadecyl)amino)-4-(3,6,6-trimethyl-4-oxo-4,5,6,7-tetrahydro-1H-indazol-1-yl)benzamide [Compound 27]”: the “proteins recognized (eluted from ATP Sepharose)” value (“proteins recognized” for short) in the test with Hsp90 and GRP94 was “only recognize Hsp90”.
In the case of “17-alkylamino-17-desmethoxygeldanamycin [Compound 17-AAG, reference compound]”, in the test on Hsp90 and GRP94, the “proteins recognized” value was “specificity for both Hsp90 and GRP94”.
Turning to `Cc1nn(-c2ccc(C(N)=O)c(N[C@H]3CC[C@H](O)CC3)c2)c2c1C(=O)CC(C)(C)C2` [Compound 5, 2-(((1r,4r)-4-Hydroxycyclohexyl)amino)-4-(3,6,6-trimethyl-4-oxo-4,5,6,7-tetrahydro-1H-indazol-1-yl)benzamide, reference compound], in the test on Hsp90 and GRP94, the “proteins recognized” value is “specificity for both Hsp90 and GRP94”. Besides, the “competition of compound 10 fluorescence signal” value in the test with MCF7 cells is given as “competes away the fluorescence signal”. Besides, the “competition of protein binding to the resins” value with Hsp90 [1] is listed as “clean exclusion of Hsp90 but not other proteins”. In addition, the “competition of the signal from compound 10” value in the test on BT474 cells is reported as “effectively competed”.
In the case of `Cc1nn(-c2ccc(C(N)=O)c(NCCCOCCOCCOCCOCCOCCCN)c2)c2c1C(=O)CC(C)(C)C2` [Compound 8, 2-((19-Amino-4,7,10,13,16-pentaoxanonadecyl)amino)-4-(3,6,6-trimethyl-4-oxo-4,5,6,7-tetrahydro-1H-indazol-1-yl)benzamide], the “proteins recognized” value with Hsp90 and GRP94 is reported as “only recognize Hsp90”. Also, on GRP94, the “elution of GRP94 from ATP resin” value was “essentially no elution”.
Turning to `Cc1nn(-c2ccc(C(N)=O)c(NCCCOCCOCCOCCOCCOCCCNc3ccc([N+](=O)[O-])c4nonc34)c2)c2c1C(=O)CC(C)(C)C2` [Compound 11, 2-((19-((7-nitrobenzo[c][1,2,5]oxadiazol-4-yl)amino)-4,7,10,13,16-pentaoxanonadecyl)amino)-4-(3,6,6-trimethyl-4-oxo-4,5,6,7-tetrahydro-1H-indazol-1-yl)benzamide], in the test with Hsp90 and GRP94, the “proteins recognized” value is recorded as “only recognize Hsp90”.
Take `Cc1nn(-c2ccc(C(N)=O)c(NCCCOCCOCCOCCOCCO)c2)c2c1C(=O)CC(C)(C)C2` [Compound 19, 2-((1-hydroxy-3,6,9,12-tetraoxapentadecan-15-yl)amino)-4-(3,6,6-trimethyl-4-oxo-4,5,6,7-tetrahydro-1H-indazol-1-yl)benzamide]: the “proteins recognized” value in the test with Hsp90 and GRP94 is “only recognize Hsp90”.
With `Cc1nn(-c2ccc(C(N)=O)c(NCCCOCCOCCOCCOCCOCCCNc3cc(-n4nc(C)c5c4CC(C)(C)CC5=O)ccc3C(N)=O)c2)c2c1C(=O)CC(C)(C)C2` [Compound 20, 2,2′-(4,7,10,13,16-pentaoxanonadecane-1,19-diylbis(azanediyl))bis(4-(3,6,6-trimethyl-4-oxo-4,5,6,7-tetrahydro-1H-indazol-1-yl)benzamide)], in the test with Hsp90 and GRP94, the “proteins recognized” value was “only recognize Hsp90”.
`Cc1nn(-c2ccc(C(N)=O)c(N[C@H]3CC[C@H](N)CC3)c2)c2c1C(=O)CC(C)(C)C2` [Compound 28, 2-(((1r,4r)-4-aminocyclohexyl)amino)-4-(3,6,6-trimethyl-4-oxo-4,5,6,7-tetrahydro-1H-indazol-1-yl)benzamide]: the “proteins recognized” value in the test with Hsp90 and GRP94 is recorded as “only recognize Hsp90”.
In the case of `Cc1nn(-c2ccc(C(N)=O)c(N[C@H]3CC[C@H]([N+](C)(C)C)CC3)c2)c2c1C(=O)CC(C)(C)C2` [Compound 29, (1r,4r)-4-((2-carbamoyl-5-(3,6,6-trimethyl-4-oxo-4,5,6,7-tetrahydro-1H-indazol-1-yl)phenyl)amino)-N,N,N-trimethylcyclohexanaminium], in the test on Hsp90 and GRP94, the “proteins recognized” value was “only recognize Hsp90”.
With `CC(C)NCCCn1c(Sc2cc3c(cc2I)OCO3)nc2c(N)ncnc21` [PU-H71], the “proteins recognized” value in the test with Hsp90 and GRP94 was “specificity for both Hsp90 and GRP94”. The “elution of Hsp90 from ATP resin” value in the test with Hsp90 [2] is on record as “strong potency”. In addition, at GRP94, the “elution of GRP94 from ATP resin” value is listed as “strong potency”.
Turning to `CC1(C)CC(=O)c2c(C(F)(F)F)nn(-c3ccc(C(N)=O)c(N[C@H]4CC[C@H](O)CC4)c3)c2C1` [SNX-2112], the “elution of GRP94 from ATP resin” value on GRP94 is listed as “weaker affinity”.
